According to US20090018166A1, “New Pyridine Analogues X 161” (ASTRAZENECA AB, priority 2007, published 2009):
pIC50: −log10 of the molar value.

These compounds were tested against T1, P2Y12 receptor (Homo sapiens, UniProt Q9H244) (assay: Functional inhibition of 2-Me-S-ADP induced P2Y12 signalling (35S-GTPγS binding, membranes from P2Y12 transfected CHO-cells)). Details: 35S-GTPγS, EC80 of 2-methyl-thio-adenosine diphosphate, P2Y12 CHO membranes; value given in each example; read-out: GTPγS(IC50 μM).
T1 construct: expressed in transfected cells; host or cells: CHO cells (membranes)
Format: biochemical
Protocol: Functional inhibition of- the P2Y12 receptor can be measured by in vitro assays using cell membranes from P2Y12 transfected CHO-cells, the methodology is indicated below.
Functional inhibition of 2-Me-S-ADP induced P2Y12 signalling: 5 μg of membranes were diluted in 200 μl of 200 mM NaCl, 1 mM MgCl2, 50 mM HEPES (pH 7.4), 0.01% BSA, 30 μg/ml saponin and 10 μM GDP. To this was added an EC80 concentration of agonist (2-methyl-thio-adenosine diphosphate), the required concentration of test compound and 0.1 μCi ^35S-GTPγS. The reaction was allowed to proceed at 30° C. for 45 min. Samples were then transferred on to GF/B filters using a cell harvester and washed with wash buffer (50 mM Tris (pH 7.4), 5 mM MgCl2, 50 mM NaCl). Filters were then covered with scintilant and counted for the amount of ^35S-GTPγS retained by the filter. Maximum activity was that determined in the presence of the agonist and minimum activity in the absence of the agonist following subtraction of the value determined for non-specific activity. The effect of compounds at various concentrations was plotted according to the equation
y=A+((B−A)/(1+((C/x)̂D)))
and IC50 estimated where A is the bottom plateau of the curve i.e. the final minimum y value B is the top of the plateau of the curve i.e. the final maximum y value C is the x value at the middle of the curve. This represents the log EC50 value when A+B=100 D is the slope factor. x is the original known x values. Y is the original known y values.

T1 sequence (Q9H244 whole entry): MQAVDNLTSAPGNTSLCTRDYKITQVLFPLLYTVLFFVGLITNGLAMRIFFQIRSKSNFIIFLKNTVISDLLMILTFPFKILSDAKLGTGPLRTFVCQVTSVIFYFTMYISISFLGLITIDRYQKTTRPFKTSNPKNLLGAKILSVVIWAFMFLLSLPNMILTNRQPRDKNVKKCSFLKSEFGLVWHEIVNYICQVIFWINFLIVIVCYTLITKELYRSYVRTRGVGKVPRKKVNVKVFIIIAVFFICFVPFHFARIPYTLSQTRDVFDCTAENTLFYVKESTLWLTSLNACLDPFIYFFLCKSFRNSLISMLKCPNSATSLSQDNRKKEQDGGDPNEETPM

IC50 [µM] | Compound
0.283 | CC(=O)c1cc(C#N)c(N2CCC(C(=O)NS(=O)(=O)Cc3ccccc3)CC2)nc1CN1CCCC1=O [Example 1, 1-{5-Acetyl-3-cyano-6-[(2-oxopyrrolidin-1-yl)methyl]pyridin-2-yl}-N-(benzylsulfonyl)piperidine-4-carboxamide]
0.022 | CCCC(=O)c1cc(C#N)c(N2CCC(C(=O)NS(=O)(=O)Cc3ccccc3)CC2)nc1CN1CCCC1=O [Example 2, N-(Benzylsulfonyl)-1-{5-butyryl-3-cyano-6-[(2-oxopyrrolidin-1-yl)methyl]pyridin-2-yl}piperidine-4-carboxamide]
1.65 | CC(=O)c1cc(C#N)c(N2CCC(C(=O)NS(=O)(=O)Cc3ccccc3)CC2)nc1CN1CCCCC1=O [Example 3, 1-{5-Acetyl-3-cyano-6-[(2-oxopiperidin-1-yl)methyl]pyridin-2-yl}-N-(benzylsulfonyl)piperidine-4-carboxamide]
0.021 | CCCC(=O)c1cc(C#N)c(N2CCC(C(=O)NS(=O)(=O)Cc3ccc(C)cc3)CC2)nc1CN1CCCCC1=O [Example 4, 1-{5-Butyryl-3-cyano-6-[(2-oxopiperidin-1-yl)methyl]pyridin-2-yl}-N-[(4-methylbenzyl)sulfonyl]piperidine-4-carboxamide]
0.009 | CCCC(=O)c1cc(C#N)c(N2CCC(C(=O)NS(=O)(=O)Cc3ccc(C)cc3)CC2)nc1CN1CCCC1=O [Example 5, 1-{5-butyryl-3-cyano-6-[(2-oxopyrrolidin-1-yl)methyl]pyridin-2-yl}-N-[(4-methylbenzyl)sulfonyl]piperidine-4-carboxamide]
0.0099 | CCCC(=O)c1cc(C#N)c(N2CCC(C(=O)NS(=O)(=O)Cc3ccc(F)cc3F)CC2)nc1CN1CCCC1=O [Example 6, 1-{5-butyryl-3-cyano-6-[(2-oxopyrrolidin-1-yl)methyl]pyridin-2-yl}-N-[(2,4-difluorobenzyl)sulfonyl]piperidine-4-carboxamide]
0.028 | CCCC(=O)c1cc(C#N)c(N2CCC(C(=O)NS(=O)(=O)CC3CCCC3)CC2)nc1CN1CCCC1=O [Example 7, 1-{5-Butyryl-3-cyano-6-[(2-oxopyrrolidin-1-yl)methyl]pyridin-2-yl}-N-[(cyclopentylmethyl)sulfonyl]piperidine-4-carboxamide]
0.032 | N#Cc1cc(C(=O)C2CC2)c(CN2CCCC2=O)nc1N1CCC(C(=O)NS(=O)(=O)Cc2ccccc2)CC1 [Example 8, N-(benzylsulfonyl)-1-{3-cyano-5-(cyclopropylcarbonyl)-6-[(2-oxopyrrolidin-1-yl)methyl]pyridin-2-yl}piperidine-4-carboxamide]
0.058 | N#Cc1cc(C(=O)C2CC2)c(CN2CCCC2=O)nc1N1CCC(C(=O)NS(=O)(=O)CC2CCCC2)CC1 [Example 9, 1-{3-Cyano-5-(cyclopropylcarbonyl)-6-[(2-oxopyrrolidin-1-yl)methyl]pyridin-2-yl}-N-[(cyclopentylmethyl)sulfonyl]piperidine-4-carboxamide]
0.098 | CCC(=O)c1cc(C#N)c(N2CCC(C(=O)NS(=O)(=O)Cc3ccccc3)CC2)nc1CN1CCCC1=O [Example 10, N-(benzylsulfonyl)-1-{3-cyano-6-[(2-oxopyrrolidin-1-yl)methyl]-5-propionylpyridin-2-yl}piperidine-4-carboxamide]
0.037 | CCC(=O)c1cc(C#N)c(N2CCC(C(=O)NS(=O)(=O)Cc3ccc(C)cc3)CC2)nc1CN1CCCC1=O [Example 11, 1-{3-cyano-6-[(2-oxopyrrolidin-1-yl)methyl]-5-propionylpyridin-2-yl}-N-[(4-methylbenzyl)sulfonyl]piperidine-4-carboxamide]
0.328 | CCC(=O)c1cc(C#N)c(N2CCC(C(=O)NS(=O)(=O)CC3CCCC3)CC2)nc1CN1CCCC1=O [Example 12, 1-{3-Cyano-6-[(2-oxopyrrolidin-1-yl)methyl]-5-propionylpyridin-2-yl}-N-[(cyclopentylmethyl)sulfonyl]piperidine-4-carboxamide]
0.153 | CN(c1ccccc1)S(=O)(=O)NC(=O)C1CCN(c2nc(CN3CCCCC3=O)c(C(=O)C3CC3)cc2C#N)CC1 [Example 13, 1-{3-Cyano-5-(cyclopropylcarbonyl)-6-[(2-oxopiperidin-1-yl)methyl]pyridin-2-yl}-N-{[methyl(phenyl)amino]sulfonyl}piperidine-4-carboxamide]
0.461 | N#Cc1cc(C(=O)C2CC2)c(CN2CCCCC2=O)nc1N1CCC(C(=O)NS(=O)(=O)CC2CCCC2)CC1 [Example 14, 1-{3-Cyano-5-(cyclopropylcarbonyl)-6-[(2-oxopiperidin-1-yl)methyl]pyridin-2-yl}-N-[(cyclopentylmethyl)sulfonyl]piperidine-4-carboxamide]
0.106 | CC(C)C(=O)c1cc(C#N)c(N2CCC(C(=O)NS(=O)(=O)Cc3ccccc3)CC2)nc1CN1CCCC1=O [Example 15, N-(Benzylsulfonyl)-1-{3-cyano-5-isobutyryl-6-[(2-oxopyrrolidin-1-yl)methyl]pyridin-2-yl}piperidine-4-carboxamide]
0.396 | CC(C)C(=O)c1cc(C#N)c(N2CCC(C(=O)NS(=O)(=O)CC3CCCC3)CC2)nc1CN1CCCC1=O [Example 16, 1-{3-Cyano-5-isobutyryl-6-[(2-oxopyrrolidin-1-yl)methyl]pyridin-2-yl}-N-[(cyclopentylmethyl)sulfonyl]piperidine-4-carboxamide]
0.029 | CCCCC(=O)c1cc(C#N)c(N2CCC(C(=O)NS(=O)(=O)CC3CCCC3)CC2)nc1CN1CCCC1=O [Example 17, 1-{3-Cyano-6-[(2-oxopyrrolidin-1-yl)methyl]-5-pentanoylpyridin-2-yl}-N-[(cyclopentylmethyl)sulfonyl]piperidine-4-carboxamide]
0.013 | CCCCC(=O)c1cc(C#N)c(N2CCC(C(=O)NS(=O)(=O)Cc3ccccc3)CC2)nc1CN1CCCC1=O [Example 18, N-(Benzylsulfonyl)-1-{3-cyano-6-[(2-oxopyrrolidin-1-yl)methyl]-5-pentanoylpyridin-2-yl}piperidine-4-carboxamide]
0.0086 | CCCCC(=O)c1cc(C#N)c(N2CCC(C(=O)NS(=O)(=O)Cc3ccc(C)cc3)CC2)nc1CN1CCCC1=O [Example 19, 1-{3-Cyano-6-[(2-oxopyrrolidin-1-yl)methyl]-5-pentanoylpyridin-2-yl}-N-[(4-methylbenzyl)sulfonyl]piperidine-4-carboxamide]
0.013 | CCCCC(=O)c1cc(C#N)c(N2CCC(C(=O)NS(=O)(=O)Cc3ccc(F)cc3F)CC2)nc1CN1CCCC1=O [Example 20, 1-{3-Cyano-6-[(2-oxopyrrolidin-1-yl)methyl]-5-pentanoylpyridin-2-yl}-N-[(2,4-difluorobenzyl)sulfonyl]piperidine-4-carboxamide]
0.023 | CCCCC(=O)c1cc(C#N)c(N2CCC(C(=O)NS(=O)(=O)N(C)c3ccc(F)cc3)CC2)nc1CN1CCCC1=O [Example 21, 1-{3-Cyano-6-[(2-oxopyrrolidin-1-yl)methyl]-5-pentanoylpyridin-2-yl}-N-{[(4-fluorophenyl)(methyl)amino]sulfonyl}piperidine-4-carboxamide]

Compound | IC50 [µM]
1-{3-chloro-6-[(2-oxopyrrolidin-1-yl)methyl]-5-pentanoylpyridin-2-yl}-N-[(2,4-difluorobenzyl)sulfonyl]-N-methylpiperidine-4-carboxamide [Example 71] | 0.903

Same assay, conditions: functional inhibition of 2-Me-S-ADP induced P2Y12 signalling assay; EC80 of agonist; summary table in Pharmacological Data; read-out: IC50

pIC50 | Compound
6.55 | CCCC(=O)c1cc(C#N)c(N2CCC(C(=O)NS(=O)(=O)Cc3ccc(C)cc3)CC2)nc1CN1CCCCC1=O [Example 4, 1-{5-Butyryl-3-cyano-6-[(2-oxopiperidin-1-yl)methyl]pyridin-2-yl}-N-[(4-methylbenzyl)sulfonyl]piperidine-4-carboxamide]
6.89 | CCC(=O)c1cc(C#N)c(N2CCC(C(=O)NS(=O)(=O)CC3CCCC3)CC2)nc1CN1CCCC1=O [Example 12, 1-{3-Cyano-6-[(2-oxopyrrolidin-1-yl)methyl]-5-propionylpyridin-2-yl}-N-[(cyclopentylmethyl)sulfonyl]piperidine-4-carboxamide]
